Target: T1, BCRP (Homo sapiens, UniProt Q9UNQ0, R482G)
T1 construct: endogenous in cells; host or cells: S1M180 (human colon carcinoma, mitoxantrone-selected)
T1 sequence (Q9UNQ0 1-655 R482G): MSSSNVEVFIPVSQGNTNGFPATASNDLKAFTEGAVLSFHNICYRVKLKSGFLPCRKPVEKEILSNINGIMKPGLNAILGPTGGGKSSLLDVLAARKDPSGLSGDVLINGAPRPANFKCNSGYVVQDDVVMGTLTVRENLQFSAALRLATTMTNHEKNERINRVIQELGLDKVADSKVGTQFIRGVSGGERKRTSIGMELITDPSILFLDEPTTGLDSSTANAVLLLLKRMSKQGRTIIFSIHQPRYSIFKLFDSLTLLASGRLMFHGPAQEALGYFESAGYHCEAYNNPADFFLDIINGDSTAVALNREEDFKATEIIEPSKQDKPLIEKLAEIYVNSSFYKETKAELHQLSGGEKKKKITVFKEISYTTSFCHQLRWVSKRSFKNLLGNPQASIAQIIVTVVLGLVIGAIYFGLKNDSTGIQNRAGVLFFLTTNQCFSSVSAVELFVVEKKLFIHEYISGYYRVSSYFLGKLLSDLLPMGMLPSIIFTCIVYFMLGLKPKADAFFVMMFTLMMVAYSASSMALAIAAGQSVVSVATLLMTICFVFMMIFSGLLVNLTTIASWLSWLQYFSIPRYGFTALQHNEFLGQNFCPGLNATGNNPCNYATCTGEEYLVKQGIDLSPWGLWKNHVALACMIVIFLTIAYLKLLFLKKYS
Assay: Intracellular Ac15(Az8)2 level in S1 and S1M180 (BCRP substrate test, UPLC-MS/MS)
Type: cell-based
Method: Figure 2 Effect of Ac15(Az8)2 on intracellular accumulation of BCRP-substrates in S1 and S1M180 cells. Cells were pre-treated with 0.1% DMSO, 100 nM, or 1000 nM Ac15(Az8)2 and then incubated with BCRP substrates. (A) Topotecan accumulation. (B) DOX accumulation. The intracellular level of drug after treatment was normalized to that of S1 cells after incubating with 0.1% DMSO. Student unpaired two-tailed t-test was conducted as indicated (** p < 0.01, *** p < 0.001). (C) To measure DOX efflux, S1M180 cells were pre-incubated with medium containing 20 μM DOX for 1 h at 37 °C. Cells were then washed and further incubated with or without 1 µM of Ac15(Az8)2. At 0, 5, 10, 30, 60, 120, and 180 min, the cells were harvested to measure the intracellular DOX level. (D) To determine intracellular Ac15(Az8)2 concentration, 1 × 10^7 cells were incubated with 1 µM of Ac15(Az8)2 at 37 °C for 2 h. Cells were then washed with ice-cold PBS. To the cell pellet, acetonitrile was added to lyse the cells, and the supernatant was saved for Ac15(Az8)2 determination using UPLC–MS/MS.
BCRP is an efflux transporter with broad substrate selectivity. In order to study whether Ac15(Az8)2 is itself a substrate of BCRP, its intracellular level was measured after treating the S1 or S1M180 cells for 2 h.

For `COC(=O)c1cccc(COc2c(-c3ccc(OCCOCCn4cc(CN(Cc5ccccc5)Cc5cn(CCOCCOc6ccc(-c7oc8ccccc8c(=O)c7OCc7cccc(C(=O)OC)c7)cc6)nn5)nn4)cc3)oc3ccccc3c2=O)c1` [Ac15(Az8)2], the “Intracellular level of Ac15(Az8)2 in S1M180 higher than in S1” value (1 µM, 2 h, 37 °C) was “about 20%” and the “Transport substrate of BCRP” value (from intracellular levels in S1 vs S1M180) was “not a transport substrate of BCRP”.
